From ChEMBL document CHEMBL1142848, “Synthesis and antibacterial activity of N-(5-benzylthio-1,3,4-thiadiazol-2-yl) and N-(5-benzylsulfonyl-1,3,4-thiadiazol-2-yl)piperazinyl quinolone derivatives” (2005)
Values after ≈ are worked out from the molar mass of the structure shown.

Legend:
Format in all cases: functional
[1] = tested on: Bacillus subtilis; assay: Minimum inhibitory concentration against Bacillus subtilis
[2] = tested on: Escherichia coli; assay: Minimum inhibitory concentration against Escherichia coli
[3] = tested on: Klebsiella pneumoniae; assay: Minimum inhibitory concentration against Klebsiella pneumoniae
[4] = tested on: Staphylococcus aureus; assay: Minimum inhibitory concentration against Staphylococcus aureus
[5] = tested on: Staphylococcus epidermidis; assay: Minimum inhibitory concentration against Staphylococcus epidermidis
[6] = tested on: Pseudomonas aeruginosa; assay: Minimum inhibitory concentration against Pseudomonas aeruginosa

O=C(O)c1cn(C2CC2)c2cc(N3CCN(c4nnc(S(=O)(=O)Cc5ccc([N+](=O)[O-])cc5)s4)CC3)c(F)cc2c1=O
MIC [1]: 1 µg/mL (≈ 1.63 µM)
MIC [2]: > 64 µg/mL
MIC [3]: 64 µg/mL (≈ 104 µM)
MIC [4]: 8 µg/mL (≈ 13 µM)
MIC [5]: 2 µg/mL (≈ 3.25 µM)
MIC [6]: > 64 µg/mL

CCn1cc(C(=O)O)c(=O)c2cc(F)c(N3CCN(c4nnc(S(=O)(=O)Cc5ccccc5)s4)CC3)cc21
MIC [1]: 8 µg/mL (≈ 14.3 µM)
MIC [2]: > 64 µg/mL
MIC [3]: > 64 µg/mL
MIC [4]: 64 µg/mL (≈ 115 µM)
MIC [5]: 16 µg/mL (≈ 28.7 µM)
MIC [6]: > 64 µg/mL

O=C(O)c1cn(C2CC2)c2cc(N3CCN(c4nnc(SCc5ccc([N+](=O)[O-])cc5)s4)CC3)c(F)cc2c1=O
MIC [1]: 0.5 µg/mL (≈ 0.858 µM)
MIC [2]: 1 µg/mL (≈ 1.72 µM)
MIC [3]: 2 µg/mL (≈ 3.43 µM)
MIC [4]: 0.5 µg/mL (≈ 0.858 µM)
MIC [5]: 0.03 µg/mL (≈ 0.0515 µM)
MIC [6]: 32 µg/mL (≈ 54.9 µM)

O=C(O)c1cn(C2CC2)c2cc(N3CCN(c4nnc(S(=O)(=O)Cc5cccc([N+](=O)[O-])c5)s4)CC3)c(F)cc2c1=O
MIC [1]: 8 µg/mL (≈ 13 µM)
MIC [2]: 8 µg/mL (≈ 13 µM)
MIC [3]: 16 µg/mL (≈ 26 µM)
MIC [4]: 1 µg/mL (≈ 1.63 µM)
MIC [5]: 0.05 µg/mL (≈ 0.0813 µM)
MIC [6]: > 64 µg/mL

O=C(O)c1cn(C2CC2)c2cc(N3CCN(c4nnc(S(=O)(=O)Cc5ccccc5[N+](=O)[O-])s4)CC3)c(F)cc2c1=O
MIC [1]: 1 µg/mL (≈ 1.63 µM)
MIC [2]: 1 µg/mL (≈ 1.63 µM)
MIC [3]: 4 µg/mL (≈ 6.51 µM)
MIC [4]: 4 µg/mL (≈ 6.51 µM)
MIC [5]: 0.03 µg/mL (≈ 0.0488 µM)
MIC [6]: > 32 µg/mL

O=C(O)c1cn(C2CC2)c2cc(N3CCN(c4nnc(SCc5cccc([N+](=O)[O-])c5)s4)CC3)c(F)cc2c1=O
MIC [1]: 4 µg/mL (≈ 6.87 µM)
MIC [2]: 2 µg/mL (≈ 3.43 µM)
MIC [3]: 2 µg/mL (≈ 3.43 µM)
MIC [4]: 0.5 µg/mL (≈ 0.858 µM)
MIC [5]: 0.06 µg/mL (≈ 0.103 µM)
MIC [6]: 64 µg/mL (≈ 110 µM)

CCn1cc(C(=O)O)c(=O)c2cc(F)c(N3CCN(c4nnc(S(=O)(=O)Cc5ccccc5[N+](=O)[O-])s4)CC3)cc21
MIC [1]: 16 µg/mL (≈ 26.6 µM)
MIC [2]: 32 µg/mL (≈ 53.1 µM)
MIC [3]: 64 µg/mL (≈ 106 µM)
MIC [4]: > 64 µg/mL
MIC [5]: > 64 µg/mL
MIC [6]: > 64 µg/mL

CCn1cc(C(=O)O)c(=O)c2cc(F)c(N3CCN(c4nnc(SCc5ccccc5)s4)CC3)cc21
MIC [1]: 8 µg/mL (≈ 15.2 µM)
MIC [2]: 16 µg/mL (≈ 30.4 µM)
MIC [3]: 16 µg/mL (≈ 30.4 µM)
MIC [4]: 16 µg/mL (≈ 30.4 µM)
MIC [5]: 2 µg/mL (≈ 3.8 µM)
MIC [6]: > 64 µg/mL

CCn1cc(C(=O)O)c(=O)c2cc(F)c(N3CCN(c4nnc(SCc5ccc([N+](=O)[O-])cc5)s4)CC3)cc21
MIC [1]: 2 µg/mL (≈ 3.5 µM)
MIC [2]: 32 µg/mL (≈ 56.1 µM)
MIC [3]: 64 µg/mL (≈ 112 µM)
MIC [4]: 4 µg/mL (≈ 7.01 µM)
MIC [5]: 0.5 µg/mL (≈ 0.876 µM)
MIC [6]: > 64 µg/mL

O=C(O)c1cn(C2CC2)c2cc(N3CCN(c4nnc(SCc5ccccc5)s4)CC3)c(F)cc2c1=O
MIC [1]: 4 µg/mL (≈ 7.44 µM)
MIC [2]: 16 µg/mL (≈ 29.8 µM)
MIC [3]: 32 µg/mL (≈ 59.5 µM)
MIC [4]: 2 µg/mL (≈ 3.72 µM)
MIC [5]: 1 µg/mL (≈ 1.86 µM)
MIC [6]: > 64 µg/mL

O=C(O)c1cn(C2CC2)c2cc(N3CCN(c4nnc(SCc5ccccc5[N+](=O)[O-])s4)CC3)c(F)cc2c1=O
MIC [1]: 4 µg/mL (≈ 6.87 µM)
MIC [2]: 2 µg/mL (≈ 3.43 µM)
MIC [3]: 16 µg/mL (≈ 27.5 µM)
MIC [4]: 2 µg/mL (≈ 3.43 µM)
MIC [5]: 0.06 µg/mL (≈ 0.103 µM)
MIC [6]: 64 µg/mL (≈ 110 µM)

CCn1cc(C(=O)O)c(=O)c2cc(F)c(N3CCN(c4nnc(S(=O)(=O)Cc5ccc([N+](=O)[O-])cc5)s4)CC3)cc21
MIC [1]: 32 µg/mL (≈ 53.1 µM)
MIC [2]: > 64 µg/mL
MIC [3]: > 64 µg/mL
MIC [4]: 64 µg/mL (≈ 106 µM)
MIC [5]: 8 µg/mL (≈ 13.3 µM)
MIC [6]: > 64 µg/mL

O=C(O)c1cn(C2CC2)c2cc(N3CCN(c4nnc(S(=O)(=O)Cc5ccccc5)s4)CC3)c(F)cc2c1=O
MIC [1]: 4 µg/mL (≈ 7.02 µM)
MIC [2]: > 64 µg/mL
MIC [3]: > 64 µg/mL
MIC [4]: 16 µg/mL (≈ 28.1 µM)
MIC [5]: 4 µg/mL (≈ 7.02 µM)
MIC [6]: > 64 µg/mL

CCn1cc(C(=O)O)c(=O)c2cc(F)c(N3CCN(c4nnc(S(=O)(=O)Cc5cccc([N+](=O)[O-])c5)s4)CC3)cc21
MIC [1]: 64 µg/mL (≈ 106 µM)
MIC [2]: > 64 µg/mL
MIC [3]: > 64 µg/mL
MIC [4]: > 64 µg/mL
MIC [5]: 64 µg/mL (≈ 106 µM)
MIC [6]: > 64 µg/mL

CCn1cc(C(=O)O)c(=O)c2cc(F)c(N3CCN(c4nnc(SCc5ccccc5[N+](=O)[O-])s4)CC3)cc21
MIC [1]: 8 µg/mL (≈ 14 µM)
MIC [2]: 16 µg/mL (≈ 28 µM)
MIC [3]: 32 µg/mL (≈ 56.1 µM)
MIC [4]: 4 µg/mL (≈ 7.01 µM)
MIC [5]: 0.5 µg/mL (≈ 0.876 µM)
MIC [6]: > 64 µg/mL

CCn1cc(C(=O)O)c(=O)c2cc(F)c(N3CCN(c4nnc(SCc5cccc([N+](=O)[O-])c5)s4)CC3)cc21
MIC [1]: 8 µg/mL (≈ 14 µM)
MIC [2]: 16 µg/mL (≈ 28 µM)
MIC [3]: 16 µg/mL (≈ 28 µM)
MIC [4]: 2 µg/mL (≈ 3.5 µM)
MIC [5]: 0.25 µg/mL (≈ 0.438 µM)
MIC [6]: > 64 µg/mL

O=C(O)c1cn(C2CC2)c2cc(N3CCNCC3)c(F)cc2c1=O [CIPROFLOXACIN]
MIC [1]: 0.015 µg/mL (≈ 0.0453 µM)
MIC [3]: 0.06 µg/mL (≈ 0.181 µM)
MIC [4]: 0.5 µg/mL (≈ 1.51 µM)
MIC [5]: 0.25 µg/mL (≈ 0.754 µM)

CCn1cc(C(=O)O)c(=O)c2cc(F)c(N3CCNCC3)cc21 [NORFLOXACIN]
MIC [1]: 0.06 µg/mL (≈ 0.188 µM)
MIC [2]: 0.25 µg/mL (≈ 0.783 µM)
MIC [3]: 0.25 µg/mL (≈ 0.783 µM)
MIC [4]: 1 µg/mL (≈ 3.13 µM)
MIC [5]: 0.5 µg/mL (≈ 1.57 µM)
MIC [6]: 2 µg/mL (≈ 6.26 µM)
